Here are results for one molecule from patent US6855669B2, “Use of α,β unsaturated aliphatic aldehydes and ketones to inhibit potato tuber sprouting” (Washington State University Research Foundation, priority 2000, dated 2005).

What all share (format): in vivo, Solanum tuberosum
Data set [1] concerns Desiree potatoes (tubers). Description: Example 1: plant emergence and plant growth from treated tubers planted in greenhouse. The settings on record: 200 μL then 1000 μL in 9.2 L desiccator, 56 hour treatment, harvest 21 days after planting. On the procedure:
Methods: […] potatoes were produced in research plots at the Edmonton Research Station, University of Alberta in 1999. The tubers were harvested in September, washed, transported to Washington State University and placed in 4° C. storage in late October. Tubers, selected for uniform size, were taken from the storage area for the experiment in June. The 9-month-old tubers were fully emerged from dormancy after this prolonged storage interval; however, no sprout growth had occurred at the low storage temperature. The tubers were washed, air-dried, and evenly divided between two 9.2 liter (L) glass desiccators (8 tubers per desiccator). Trans-2-hexenal (200 μL) was pipetted into a 50 milliliter (mL) beaker that was placed inside one of the desiccators. The other desiccator served as control. Both desiccators were closed and the tubers were incubated in the two atmospheres for 32 hours. The desiccators were then opened, an additional 1000 μL of trans-2-hexenal was added to the beaker, and the desiccators were closed for an additional 24 hours. One tuber from each chamber was sampled for trans-2-hexenal content at the end of the 56 hour treatment interval. […] Time to plant emergence was recorded and plants were harvested 21 days after planting. Plants were separated into various components (e.g., stems, leaves) at harvest and the effects of trans-2-hexenal on plant morphology were assessed.

For data set [2], the system named is Ranger Russet seed-tubers. Description: Example 2: etiolated sprout development and tuber quality, Ranger Russet. The settings on record: 4.7 mmol/kg potato tubers, 25 days. On the procedure:
Methods: Ten-month-old Ranger Russet, Umatilla and Russet Burbank seed-tubers were taken from 4° C. storage and treated with trans-2-hexenal in 9.2-L glass desiccators as described in Example 1. The tubers were exposed to trans-2-hexenal for 0, 12 and 24 hours at 23° C. at a concentration of 4.7 mmol/kg potato tubers. Regardless of exposure time, all tubers remained enclosed in the chambers for the entire 24 hour period. This was accomplished by introducing the trans-2-hexenal at zero-time (into the 24 hour treatment desiccator) and after 12 hour incubation (into the 12 hour treatment desiccator) through a septum in the top of the closed desiccator. The treated tubers were planted into moistened peat/perlite/soil potting mix and placed in the dark at 24° C. to stimulate sprouting. The experiment was set up in a randomized complete block design (5 replicates) with treatments (3 cultivars×3 exposure times) arranged factorially. Effects of trans-2-hexenal exposure and cultivar on etiolated sprout development and tuber quality were assessed 25 days after removal from the 4° C. storage.

For data set [3], the system named is Russet Burbank seed-tubers. Put plainly: Example 3: potato tuber respiration (CO2 in outflow, infra-red gas analyzer). The settings on record: 0.96 mmol/kg. On the procedure: Methods: Eleven-month-old Russet Burbank seed-tubers were taken from a 4° C. storage area and treated with 250 μL of trans-2-hexenal in a 9.2 liter (L) glass desiccator (0.96 mmol/kg potato tubers) for 12 hours at 23° C. The trans-2-hexenal was pipetted onto Whatman #1 filter paper in a glass petri dish (5.5 cm diameter) inside the desiccator. Control tubers were enclosed in a desiccator without trans-2-hexenal. Following treatment, the tubers were enclosed in 1 L […] chambers (3 tubers per chamber) that were placed at 15° C. A continuous airflow (approximately 80 mL/min; 21% O2, 79% N2) was established around the tubers through inlet and outlet ports in the lid of each chamber. Respiration rates were determined at four hour intervals over a 28 day storage period by quantifying CO2 in the outflow from each chamber with a LI-COR model 6262 infra-red gas analyzer (LI-COR Inc., Lincoln Nebr.). The experiment was set up in a randomized complete block design (5 replicates) with two treatments (control and trans-2-hexenal-treated). The effect of trans-2-hexenal exposure on the development of etiolated sprouts was assessed 28 days after removal from the 4° C. storage.

Data set [4] relates to Russet Burbank and Ranger Russet seed-tubers. Description: Example 5: sprout inhibition by C5 to C9 trans-2 aldehydes over prolonged storage (17 weeks). The settings on record: 0.5, 0.75 and 1.0 mmol/kg tuber, 24 hours; 17 weeks at 8° C., 95% RH. The method, then: (46° F.), 95% relative humidity (RH), for 17 weeks. As described more fully in Example 5, four-month-old tubers (previously stored at 4° C.) were treated (for 24 h) with different concentrations of the aldehydes in mid January. The treated tubers were then stored in the dark for 120 days (17 weeks).
Methods: Four-month-old Russet Burbank and Ranger Russet seed-tubers were taken from a 4° C. storage area and treated (Jan. 10, 2001) separately with 0, 0.5, 0.75 and 1.0 mmol/kg tuber of trans-2-pentenal, trans-2-hexenal, trans-2-heptenal, trans-2-octenal, and trans-2-nonenal in 3.9 L glass jars. The volume of inhibitor required to achieve the above rates was pipetted onto filter paper discs inside the lids of each jar. The concentration of inhibitors in the headspace of the jars was equal at 0.16 mmol/L. The tubers were enclosed in the jars and thus exposed to inhibitor vapor for 24 hours at 23° C. Control tubers were enclosed in a glass jar without any aldehyde. Following treatment, tubers were removed from the jars and placed at 8° C. (46° F.) (95% relative humidity) in the dark to sprout for 120 days (17 weeks). The experiment was set up in a randomized complete block design (5 replicates) with chemicals and concentrations arranged factorially. Effects of the aliphatic aldehydes on the development of etiolated sprouts were documented photographically and quantitatively (sprout number and fresh weight) after 120 days of storage.

Take `CCC/C=C/C=O` [trans-2-hexenal]: the “sprouting, plant emergence and plant growth from potato tubers (in words)” value in data set [1] is on record as “clearly inhibited sprouting”. Further, in data set [2] (12 h exposure), the “Average Sprout Length” value is recorded as 0 cm/tuber, the “External Pit Rating (1-4 scale)” value came to 3.1, the “Soft Rot Lesions” value is reported as 1.0 no/tuber and the “Sprout Fresh Weight” value is listed as 0 g/tuber. Also, in data set [2] (24 h exposure), the “Average Sprout Length” value is on record as 0 cm/tuber, the “External Pit Rating (1-4 scale)” value came to 3.7, the “Soft Rot Lesions” value was 1.2 no/tuber and the “Sprout Fresh Weight” value came to 0 g/tuber. In addition, the “time after treatment at which respiration reached a level equal to the untreated tubers” value in data set [3] (12 hours, storage at 15° C.) was at most 32 h. The “respiration lower than control tubers” value in data set [3] (by the end of the study (27 day storage at 15° C.)) was found to be 2.5 fold. In addition, in data set [3] (immediately following the 12 hour treatment period), the “respiration rate greater than untreated tubers” value is 38%. For the same molecule, in data set [4], the “inhibition of sprout development (in words)” value was “inhibited sprouting in a concentration-dependent manner”.
